In patent publication US20120238599A1, “HETEROCYCLIC COMPOUNDS AS MEK INHIBITORS” (CHEMIZON, A DIVISION OF OPTOMAGIC CO., LTD., priority 2011, published 2012):

Tests used:
Mek1 = molecular target: T1, Mek1 (Homo sapiens, UniProt Q02750); test: Mek1 kinase assay (LANCE), enzymatic activity; type: biochemical; conditions: Mek1 0.25 nM, 50 μM ATP, 2 nM inactive Erk1, 90 min at 23° C.
T1 construct: purchased Millipore
Description: A Mek1 kinase assay (LANCE, PerkinElmer) was developed for supporting compound profiling and lead optimization. […] Then the phosphorylated Erk1 was able to phosphorylate ULight™-MBP peptide (PerkinElmer). The phosphorylated peptide was detected by Europium-anti-phospho-MBP (PerkinElmer). […] After quenching the reaction, 2 nM Europium-anti-phospho-MBP was added to the reaction mixture and incubated for 60 min, followed by a detection using EnVision. The IC50 values were derived through a curve fitting using GraFit.

MEK = test: Cell-based mechanism assay in A375 cell line, MEK inhibition detected by reduced ERK phosphorylation (AlphaScreen SureFire); conditions: A375 cell line (melanoma), phospho-ERK levels, compounds incubated 1 hour at 37° C.
Description: To investigate whether a compound is able to inhibit the activity of MEK in cells, a mechanism-based assay using A375 cell line (melanoma) was developed. In this assay (AlphaScreen, PerkinElmer), inhibition of MEK was detected by reduced ERK phosphorylation. A375 cells were cultured in a tissue culture flask to 80% confluence in DMEM plus 10% fetal bovine serum. Cells were collected and plated onto 96 well culture plates at 3×10^4 cells/well. Plates were incubated overnight at 37° C. with 5% CO2 to allow cells to adhere. Compounds were added to the plates and incubated at 37° C. for 1 hour. After removing the medium, 100 μl of cell lysis buffer were added to each well and 4 μl of cell lysate were transferred into a 384 well white Proxiplate (PerkinElmer). The phospho-ERK levels were determined by following the standard protocol supplied with the PerkinElmer SureFire Phospho-ERK 1/2 Assay Kit®. Plates were read out by EnVision (PerkinElmer). The data were analyzed using GraphPad Prism.

T1 sequence (Q02750 whole entry, species assumed): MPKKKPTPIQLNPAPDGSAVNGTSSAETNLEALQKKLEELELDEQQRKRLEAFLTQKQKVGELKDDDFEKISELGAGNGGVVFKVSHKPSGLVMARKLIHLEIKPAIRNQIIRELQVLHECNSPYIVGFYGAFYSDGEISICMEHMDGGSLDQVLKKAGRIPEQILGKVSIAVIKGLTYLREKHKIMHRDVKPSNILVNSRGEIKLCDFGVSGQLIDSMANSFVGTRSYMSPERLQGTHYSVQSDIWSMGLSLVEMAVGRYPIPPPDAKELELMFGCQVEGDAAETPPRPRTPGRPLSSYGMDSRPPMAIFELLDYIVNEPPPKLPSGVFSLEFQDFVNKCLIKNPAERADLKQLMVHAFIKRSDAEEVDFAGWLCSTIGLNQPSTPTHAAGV

Compound	IC50 (Mek1)	IC50 (MEK)
Cc1nc2c(=O)n(C)c(Nc3ccc(I)cc3F)c(C(=O)NOCCO)c2o1	< 1000 nM	< 100 nM
Cn1c(Nc2ccc(I)cc2F)c(C(=O)NOC[C@H](O)CO)c2occc2c1=O	< 100 nM	< 100 nM
Cn1c(Nc2ccc(I)cc2F)c(C(=O)NOCCO)c2scnc2c1=O	< 5000 nM	< 5000 nM
Cn1c(Nc2ccc(I)cc2Cl)c(C(=O)NOCCO)c2occc2c1=O	< 100 nM	< 100 nM
Cn1c(Nc2ccc(I)cc2F)c(C(=O)NOCCO)c2sccc2c1=O	< 1000 nM	< 100 nM
Cn1c(Nc2ccc(I)cc2F)c(C(=O)NOCCO)c2occc2c1=O	< 100 nM	< 100 nM
COc1c(C(=O)NOCCO)c(Nc2ccc(I)cc2F)n(C)c(=O)c1C	< 100 nM	< 100 nM
Cc1coc2c(C(=O)NOCCO)c(Nc3ccc(I)cc3F)n(C)c(=O)c12	< 1000 nM	< 100 nM
Cc1noc2c(C(=O)NOCCO)c(Nc3ccc(I)cc3F)n(C)c(=O)c12	< 5000 nM	< 100 nM
Cn1c(Nc2ccc(I)cc2F)c(C(=O)NCCCO)c2occc2c1=O	< 5000 nM	< 100 nM
